Results from the supplement of paper PMC9103864.

Columns and labels:
[1] = system: BMSC (primary human bone marrow mesenchymal stromal cells); assay: drug sensitivity score (DSS); higher = more sensitive
[2] = system: BMSC (primary human bone marrow mesenchymal stromal cells); assay: absolute EC50 for viability; higher = less sensitive

Row | Compound | drug sensitivity score [1] | absolute EC50 for viability [2] [µM]
1 | Cc1ccc(NS(=O)(=O)c2cccc(C#N)c2)c2[nH]cc(C#N)c12 [E7820] | 0 | > 50
2 | N#Cc1ccc(COC[C@H]2O[C@@H](n3c(NCc4ccc(Cl)c(Cl)c4)nc4c(N)ncnc43)[C@H](O)[C@@H]2O)cc1 | 2.2 | > 10
3 | O=C(/C=C\n1cnc(-c2cc(C(F)(F)F)cc(C(F)(F)F)c2)n1)NNc1ccccn1 [Verdinexor] | 1.6 | > 1
4 | COc1cccc2c1C(=O)c1c(O)c3c(c(O)c1C2=O)C[C@@](O)(C(C)=O)C[C@@H]3O[C@H]1C[C@H](N)[C@H](O)[C@H](C)O1 [Daunorubicin] | 5.6 | 0.356
5 | C=CC(=O)Nc1cc2c(Nc3ccc(F)c(Cl)c3)ncnc2cc1OCCCN1CCOCC1 [Canertinib] | 3.7 | > 10
6 | Nc1ncn([C@@H]2O[C@H](CO)[C@@H](O)[C@H]2O)c(=O)n1 [Azacitidine] | 2.3 | > 10
7 | Cn1nccc1Nc1nccc(-c2ccn([C@H](CO)c3ccc(Cl)c(F)c3)c(=O)c2)n1 [Ravoxertinib] | 0 | > 10
8 | CC(=O)N(O)CCCCCNC(=O)CCC(=O)N(O)CCCCCNC(=O)CCC(=O)N(O)CCCCCN [Deferoxamine] | 0 | > 10
9 | NC(=O)N1CCC(CC(=O)N2CCC([C@H]3c4ncc(Br)cc4CCc4cc(Cl)cc(Br)c43)CC2)CC1 [Lonafarnib] | 4.4 | > 100
10 | CCOc1ccccc1-n1c(C(C)N2CCN(C(=O)COc3ccc(Cl)cc3)CC2)nc2ccccc2c1=O (stereo not drawn) [Erastin] | 2.1 | > 10
11 | COc1cc(OC)c(/C=C/S(=O)(=O)Cc2ccc(OC)c(NCC(=O)O)c2)c(OC)c1 [Rigosertib] | 8.9 | > 10
12 | CN[C@@H]1C[C@H]2O[C@@](C)([C@@H]1OC)n1c3ccccc3c3c4c(c5c6ccccc6n2c5c31)C(=O)N[C@H]4O [UCN-01] | 13.3 | 0.643
13 | NC(=S)N/N=C/c1ncccc1N [Triapine] | 0 | > 10
14 | COC(=O)C[C@](O)(CCCC(C)(C)O)C(=O)O[C@@H]1C(OC)=C[C@]23CCCN2CCc2cc4c(cc2[C@H]13)OCO4 [Omacetaxine] | 18.6 | 0.219
15 | Cc1cc2c(F)c(Oc3ncnn4cc(OC[C@@H](C)O)c(C)c34)ccc2[nH]1 [Brivanib] | 0 | > 1
16 | CCn1c(-c2nonc2N)nc2c(C#CC(C)(C)O)ncc(OC[C@H]3CCCNC3)c21 | 6.3 | > 10
17 | COc1nc(N)nc2c1ncn2[C@@H]1O[C@H](CO)[C@@H](O)[C@@H]1O [Nelarabine] | 0 | > 10
18 | COc1cc(CCc2cc(NC(=O)c3ccc(N4CC(C)NC(C)C4)cc3)n[nH]2)cc(OC)c1 (stereo not drawn) [AZD4547] | 1 | > 1
19 | C=C(c1ccc(C(=O)O)cc1)c1cc2c(cc1C)C(C)(C)CCC2(C)C [Bexarotene] | 0 | > 10
20 | COc1cc2ncnc(Oc3cccc(NC(=O)Nc4cc(C(C)(C)C(F)(F)F)on4)c3)c2cc1OC | 4.6 | > 10

Row | Compound | drug sensitivity score [1] | absolute EC50 for viability [2] [µM]
21 | O=C(NC[C@H](O)CN1CCc2ccccc2C1)c1cc(NC2COC2)ncn1 | 0 | > 10
22 | CN1CCN(c2nc(C3=C(c4c[nH]c5ccccc45)C(=O)NC3=O)c3ccccc3n2)CC1 [Sotrastaurin] | 2.8 | > 10
23 | CCCCCCCCCCCCCCCCOP(=O)([O-])OCC[N+](C)(C)C [Miltefosine] | 2.7 | 78.2
24 | CN(C)C[C@@H]1CCn2cc(c3ccccc32)C2=C(C(=O)NC2=O)c2cn(c3ccccc23)CCO1 [Ruboxistaurin] | 7 | 2.42
25 | CNC(=O)c1cc(Oc2ccc(NC(=O)Nc3ccc(Cl)c(C(F)(F)F)c3)c(F)c2)ccn1 [Regorafenib] | 0.7 | > 10
26 | Cc1nc(NC(=O)N2CCC[C@H]2C(N)=O)sc1-c1ccnc(C(C)(C)C(F)(F)F)c1 [Alpelisib] | 3.4 | > 2.5
27 | CCc1c2c(nc3ccc(O)cc13)-c1cc3c(c(=O)n1C2)COC(=O)[C@]3(O)CC [SN-38] | 10 | 1.52
28 | COc1cc(C(=O)O)ccc1NC(=O)[C@@H]1N[C@@H](CC(C)(C)C)[C@](C#N)(c2ccc(Cl)cc2F)[C@H]1c1cccc(Cl)c1F [Idasanutlin] | 13.3 | 0.576
29 | NC(=O)/C(=C/n1cnc(-c2cc(C(F)(F)F)cc(C(F)(F)F)c2)n1)c1cncnc1 [Eltanexor] | 9.6 | > 10
30 | CC(C)(C)NC(=O)[C@H]1CC[C@H]2[C@@H]3CC[C@H]4NC(=O)C=C[C@]4(C)[C@H]3CC[C@]12C [Finasteride] | 0 | > 10
31 | NC1(c2ccc(-c3nc4ccn5c(=O)[nH]nc5c4cc3-c3ccccc3)cc2)CCC1 [MK-2206] | 5.8 | > 1
32 | COc1cc2ncnc(Nc3ccc(F)c(Cl)c3)c2cc1OCCCN1CCOCC1 [Gefitinib] | 3.4 | > 10
33 | CC(=O)Nc1cccc(-n2c(=O)n(C3CC3)c(=O)c3c(Nc4ccc(I)cc4F)n(C)c(=O)c(C)c32)c1 [Trametinib] | 2.7 | > 0.25
34 | CCN(c1cc(-c2ccc(CN3CCOCC3)cc2)cc(C(=O)NCc2c(C)cc(C)[nH]c2=O)c1C)C1CCOCC1 [Tazemetostat] | 0 | > 10
35 | C[C@@H](C(=O)O)c1ccc(-c2ccccc2)c(F)c1 [Tarenflurbil] | 0 | > 10
36 | CC[C@H](C)C(=O)O[C@H]1C[C@H](O)C=C2C=C[C@H](C)[C@H](CC[C@@H](O)C[C@@H](O)CC(=O)O)[C@H]21 [Pravastatin] | 0 | > 10
37 | C=CC(=O)N1CC/C(=C\c2ccc(F)c([N+](=O)[O-])c2)C(=O)/C(=C/c2ccc(F)c([N+](=O)[O-])c2)C1 [VLX1570] | 9.6 | 1.4
38 | Cn1nnc2c(C(N)=O)ncn2c1=O [Temozolomide] | 0 | > 100
39 | CS(=O)(=O)c1ccc(-c2cnc(N)c(C(=O)Nc3ccccc3)n2)cc1 [VE-821] | 0 | > 10
40 | O=C(Nc1ccc(OC(F)(F)Cl)cc1)c1cnc(N2CC[C@@H](O)C2)c(-c2cc[nH]n2)c1 [Asciminib] | 0 | > 1

Row | Compound | drug sensitivity score [1] | absolute EC50 for viability [2] [µM]
41 | NC(=O)c1cnc2[nH]ccc2c1NC1C2CC3CC1CC(O)(C3)C2 (stereo not drawn) [Peficitinb] | 1.7 | > 2.5
42 | CC[C@H](CO)Nc1nc(NCc2ccccc2)c2ncn(C(C)C)c2n1 [Seliciclib] | 0 | > 10
43 | Cn1c(=O)n(-c2ccc(C(C)(C)C#N)cc2)c2c3cc(-c4cnc5ccccc5c4)ccc3ncc21 [Dactolisib] | 10.7 | 0.114
44 | C[C@@]1(C(=O)Nc2ccc(F)nc2)CCCN1c1nc(Nc2cc(C3CC3)n[nH]2)c2cccn2n1 | 9.3 | 7.74
45 | N#CC1(c2ccc(NC(=O)c3cccnc3NCc3ccncc3)cc2)CCCC1 [Apatinib] | 0.1 | > 10
46 | Cc1ccc(C(=O)N(CCCN)[C@@H](c2oc3cc(Cl)ccc3c(=O)c2Cc2ccccc2)C(C)C)cc1 | 0 | > 0.1
47 | O=C(O)c1ccc2c(c1)nc(Nc1cccc(Cl)c1)c1ccncc12 [Silmitasertib] | 2.3 | > 10
48 | CC(C)(O)CNc1nc(Nc2ccnc(C(F)(F)F)c2)nc(-c2cccc(C(F)(F)F)n2)n1 [Enasidenib] | 0 | > 10
49 | CCN(CCCOc1ccc2c(Nc3cc(CC(=O)Nc4cccc(F)c4)[nH]n3)ncnc2c1)CCOP(=O)(O)O [Barasertib] | 0.1 | > 1
50 | O=C(O)c1ccc(-c2c[nH]c3ncc(-c4ccccc4)cc23)cc1C1CCCC1 | 0.7 | > 10
51 | O=C(c1ccc(OCCN2CCCCC2)cc1)c1c(-c2ccc(O)cc2)sc2cc(O)ccc12 [Raloxifene] | 2.6 | 7.96
52 | CCOC(=O)C1=CCCC[C@H]1S(=O)(=O)Nc1ccc(F)cc1Cl [Resatorvid] | 0 | 9.93
53 | Nc1ccccc1NC(=O)c1ccc(CNC(=O)OCc2cccnc2)cc1 [Entinostat] | 3.5 | > 10
54 | C[C@]1(c2nc3c(C(N)=O)cccc3[nH]2)CCCN1 [Veliparib] | 0 | > 10
55 | CC(C)Oc1ccc(C(=O)N[C@H](CNC(=O)CN(C)C)Cc2ccc(-c3cn4cccc([C@H](C)O)c4n3)cc2)cc1Cl | 0 | 9.93
56 | CCNc1nc(Nc2cc(F)c(C(=O)N3CCOCC3)cc2OC)ncc1C(F)(F)F [GNE-7915] | 0 | > 1
57 | CC[C@]1(O)C[C@H]2CN(CCc3c([nH]c4ccccc34)[C@@](C(=O)OC)(c3cc4c(cc3OC)N(C=O)[C@H]3[C@@](O)(C(=O)OC)[C@H](OC(C)=O)[C@]5(CC)C=CCN6CC[C@]43[C@@H]65)C2)C1 [Vincristine] | 3.4 | > 1
58 | COc1cc(N2CCC(N3CCN(C)CC3)CC2)ccc1Nc1ncc(Cl)c(Nc2ccccc2P(C)(C)=O)n1 [Brigatinib] | 2.8 | 0.945
59 | COc1cc(N2CCC(N3CCN(C)CC3)CC2)ccc1Nc1ncnc(Nc2ccccc2S(=O)(=O)C(C)C)n1 [ASP3026] | 6.5 | 2.29
